Source: patent US9494592B2, “Reaction-based fluorescent probes for sulfane sulfur and the application in bioimaging” (Washington State University, priority 2013, dated 2016)

What was measured:
[1] = excited at 330 nm in sodium phosphate buffer (0.1 M; pH 7.4); cited from earlier work
[2] = Fluorescence quantum yield determination; format: physicochemical; settings: probe alone; aqueous PBS buffer solution (pH 7.4)
Method: The quantum yield was calculated according to the equation:^3 (Φsample=Φstandard*(Isample/Istandard)*(Astandard/Asample)*(nsample/nstandard)^2) Φ denotes the quantum yield; I denotes the area under the fluorescence band; A denotes the absorbance at the excitation wavelength; n denotes the refractive index of the solvent.
For quantum yield of SSP1, it was determined using 7-hydroxycoumarin as a standard by comparing the area under the corrected emission spectrum of the test sample with that of a solution of 7-hydroxycoumarin excited at 330 nm in sodium phosphate buffer (0.1 M; pH 7.4), which has a quantum efficiency of 0.76 according to the literature.
For quantum yield of SSP2, Quantum yield was determined using fluorescein as a standard by comparing the area under the corrected emission spectrum of the test sample with that of a solution of fluorescein excited at 490 nm in 0.1 N NaOH, which has a quantum efficiency of 0.85 according to the literature.

[3] = Fluorescence response of probes to Na2S2 (H2S2 equivalent) in PBS buffer with CTAB; settings: probe 5.0 μM, Na2S2 25 μM, 50 mM PBS pH 7.4, 1 mM CTAB, rt
Method: (§1) The stock solution of SSP1 (1 mM) and SSP2 (1 mM) were prepared in CH3CN, respectively. The solutions of various testing species were prepared from Cysteine (Cys), GSH, Homocysteine (Hcy), Glutathione disulfide (GSSG), Na2S.9H2O, Na2S2O3, Na2SO3, Na2SO4, Na2S2 in 50 mM PBS buffer. The stock solution of Cetrimonium bromide (CTAB, 100 mM) and S8 (10 mM) were prepared in EtOH, respectively. The stock solution of Cys-polysulfide (10 mM) was prepared in CH3CN. All the test solution need to be freshly prepared.
Unless otherwise noted, all the measurements were carried out for 10 min at 25° C. in 50 mM PBS buffer (pH 7.4) with 1 mM CTAB according to the following procedure. In a test tube, 3.5 mL of 50 mM PBS buffer (pH 7.4) and 40 μL of the stock solution of CTAB were mixed, and then added 20 μL of the stock solution of SSP1 or SSP2. The resulting solution was mixed well, followed by addition of a requisite volume of testing species sample solution. The final volume of the reaction solution was adjusted to 4 mL with 50 mM PBS buffer (pH 7.4). After mixing and then standing for 10 min at room temperature, a 4-mL portion of the reaction solution was transferred into a 1-cm quartz cell to measure fluorescence with λex=380 nm (for SSP1) or 482 nm (SSP2). In the meantime, a blank solution containing no testing species sample was prepared and measured under the same conditions for comparison. […]

[4] = Effect of pH on probe fluorescence and stability; format: physicochemical; settings: probe 5.0 μM, 50 mM PBS, 1 mM CTAB
Method: FIGS. 2A-B Fluorescence intensity changes of (FIG. 2A) 5.0 μM SSP1 and (FIG. 2B) 5.0 μM SSP2 at different pH values in the absence (▪) or presence (●) of Na2S2 (25 μM). The reactions were carried out for 10 min at 25° C. in 50 mM PBS buffer with 1 mM CTAB. Data (A) were acquired at 458 nm and excited at 380 nm. Data (B) were acquired at 518 nm and excited at 482 nm.
Unless otherwise noted, all the measurements were carried out for 10 min at 25° C. in 50 mM PBS buffer (pH 7.4) with 1 mM CTAB according to the following procedure. In a test tube, 3.5 mL of 50 mM PBS buffer (pH 7.4) and 40 μL of the stock solution of CTAB were mixed, and then added 20 μL of the stock solution of SSP1 or SSP2. The resulting solution was mixed well, followed by addition of a requisite volume of testing species sample solution. The final volume of the reaction solution was adjusted to 4 mL with 50 mM PBS buffer (pH 7.4). After mixing and then standing for 10 min at room temperature, a 4-mL portion of the reaction solution was transferred into a 1-cm quartz cell to measure fluorescence with λex=380 nm (for SSP1) or 482 nm (SSP2). In the meantime, a blank solution containing no testing species sample was prepared and measured under the same conditions for comparison. All the measurements were repeated three times and data reported were averages.

[5] = Selectivity: fluorescence response to sulfane sulfur compounds; settings: sulfane sulfurs at 25 μM (H2S2, Cys-polysulfide, S8), probe 5.0 μM, 10 min, PBS pH 7.4, 1 mM CTAB
Method: FIGS. 5A-B Fluorescence enhancement (F/F0) of 5.0 μM probes in the presence of various reactive sulfur species. (FIG. 5A) data of SSP1 (Ex/Em=380/458 nm). (FIG. 5B) data of SSP2 (Ex/Em=482/518 nm). The reactions were carried out for 10 min at rt in PBS buffer (50 mM, pH 7.4) with 1 mM CTAB. (1) probe alone; (2) 1 mM Cys; (3) 1 mM GSH; (4) 1 mM Hcy; (5) 100 μM GSSG; (6) 100 μM Na2S; (7) 100 μM Na2S2O3; (8) 100 μM Na2SO3; (9) 100 μM Na2SO4; (10) 25 μM Na2S2; (11) 25 μM Cys-polysulfide; (12) 25 μM S8.
as §1, with “The stock solution of Cys-polysulfide (10 mM) was prepared in CH3CN. All the test solution need to be freshly prepared.” left out
Unless otherwise noted, all the measurements were carried out for 10 min at 25° C. in 50 mM PBS buffer (pH 7.4) with 1 mM CTAB according to the following procedure. […] After mixing and then standing for 10 min at room temperature, a 4-mL portion of the reaction solution was transferred into a 1-cm quartz cell to measure fluorescence with λex=380 nm (for SSP1) or 482 nm (SSP2). In the meantime, a blank solution containing no testing species sample was prepared and measured under the same conditions for comparison. […]

H9c2 cells = experiment: Fluorescence imaging of H2S2 in H9c2 cells; format: cell-based; settings: SSP2 50 μM 20 min
Method: (§2) FIGS. 6A-F Fluorescence images of H2S2 detection in H9c2 cells (a, b, c) and HeLa cells (d, e, f). Cells on glass coverslips were incubated with SSP2 (50 μM) for 20 min, then washed and subjected to different treatments. (a & d) controls (no Na2S2 was added); (b & e) treated with 50 μM Na2S2; (c & f) treated with 100 μM Na2S2.
(§3) H9c2 cells and HeLa cells were grown on glass-bottom culture dishes (Corning Inc.) in DMEM supplemented with 10% (v/v) FBS, penicillin (100 U/mL) and streptomycin (100 μg/mL) at 37° C. under a humidified atmosphere containing 5% CO2. Before use, the adherent cells were washed one time with FBS-free DMEM. For intracellular H2S2 imaging, the cells were incubated with 50 μM SSP2 in FBS-free DMEM (containing 200 μM CTAB) at 37° C. for 20 min. After removal of excess probe and washed with PBS (pH 7.4), the cells were incubated with 50 or 100 uM Na2S2 for 30 min in PBS buffer (pH 7.4, containing 500 μM CTAB). Cell imaging was carried out after washing the cells three times with PBS (pH 7.4).

HeLa cells = experiment: Fluorescence imaging of H2S2 in HeLa cells; format: cell-based; settings: SSP2 50 μM 20 min
Method: as §2, §3

[6] = then Na2S2 (50 or 100 μM) for 30 min

Row | fluorescence quantum yield (Φ) [2] | Compound | quantum efficiency of standard [1] | fluorescence intensity increase [3] [folds] | hydrolytic stability at basic pH [4] | fluorescence response (enhancement F/F0) [5] | cell fluorescence at 100 μM versus 50 μM Na2S2 (H9c2 cells; Na2S2 30 min) | cell fluorescence after Na2S2 treatment (H9c2 cells; [6]) | cell fluorescence without Na2S2 (H9c2 cells; washed, no Na2S2) | cell fluorescence at 100 μM versus 50 μM Na2S2 (HeLa cells; Na2S2 30 min) | cell fluorescence after Na2S2 treatment (HeLa cells; [6]) | cell fluorescence without Na2S2 (HeLa cells; washed, no Na2S2)
1 | – | O=c1ccc2ccc(O)cc2o1 [7-hydroxycoumarin] | 0.76 | – | – | – | – | – | – | – | – | –
2 | 0.06 | O=C(Oc1ccc2ccc(=O)oc2c1)c1ccccc1S [SSP1] | – | 25 | above pH 8, SSP1 undergoes small amount of hydrolysis | 26˜33 folds | – | – | – | – | – | –
3 | 0.05 | COc1ccc2c(c1)Oc1cc(OC(=O)c3ccccc3S)ccc1C21OC(=O)c2ccccc21 (stereo not drawn) [SSP2] | – | 50 | remains stable up to pH 9 | 50˜60 folds | obviously stronger fluorescence | strong fluorescence | No significant fluorescent cells | obviously stronger fluorescence | strong fluorescence | No significant fluorescent cells
